# Experimental data reported in the supplement of paper PMC10307832.
# Assays:
# Assay in all cases: relative viability (nuclei count vs DMSO), 5 days (fraction); higher = more cells survive
# NCI-H3122 = test system: NCI-H3122
# In short: (§1)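 Relative viability divides the nuclei count in treated wells by that in vehicle wells. Lung cancer cell lines were seeded in 1536-well plates, dosed by pin tool the next day, and fixed and stained after 5 days in one step with final 0.05% Triton X-100, 1% formaldehyde and 1 ug/ml Hoechst. Dosing was a single drug or a fixed anchor-drug dose plus five library-drug doses (not always all listed) in √10 steps, and values are medians of duplicate plates imaged at 4×.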
# EMC-BAC-2 = test system: EMC-BAC-2
# In short: as §1
# NCI-H596 = test system: NCI-H596
# In short: as §1
# ABC-1 = test system: ABC-1
# In short: as §1
# NCI-H1993 = test system: NCI-H1993
# In short: as §1
# NCI-H1944 = test system: NCI-H1944
# In short: as §1
# LK-2 = test system: LK-2
# In short: as §1
# HARA = test system: HARA
# In short: as §1
# NCI-H2228 = test system: NCI-H2228
# In short: as §1
# SW 900 = test system: SW 900
# In short: as §1
# HOP-62 = test system: HOP-62
# In short: as §1
# NCI-H322M = test system: NCI-H322M
# In short: as §1
# NCI-H2170 = test system: NCI-H2170
# In short: as §1
# PC-3 [JPC-3] = test system: PC-3 [JPC-3]
# In short: as §1
# NCI-H1792 = test system: NCI-H1792
# In short: as §1
# SW 1573 = test system: SW 1573
# In short: as §1
# LXF-289 = test system: LXF-289
# In short: as §1
# NCI-H2009 = test system: NCI-H2009
# In short: as §1
# SK-MES-1 = test system: SK-MES-1
# In short: as §1
# NCI-H522 = test system: NCI-H522
# In short: as §1
# A-427 = test system: A-427
# In short: as §1
# NCI-H727 = test system: NCI-H727
# In short: as §1
smiles,measurement,setting,value
CC(=O)O[C@@]12CO[C@@H]1C[C@H](O)[C@@]1(C)C(=O)[C@H](O)C3=C(C)[C@@H](OC(=O)[C@H](O)[C@@H](NC(=O)OC(C)(C)C)c4ccccc4)C[C@@](O)([C@@H](OC(=O)c4ccccc4)[C@H]21)C3(C)C [Docetaxel] + CCNC(=O)c1noc(-c2cc(C(C)C)c(O)cc2O)c1-c1ccc(CN2CCOCC2)cc1 [Luminespib] (partner 0.01 µM),relative viability,NCI-H3122; first compound 0.0002 µM,0.088
same,relative viability,NCI-H3122; first compound 0.000632 µM,0.101
same,relative viability,NCI-H3122; first compound 0.002 µM,0.104
same,relative viability,NCI-H3122; first compound 0.006325 µM,0.0883
same,relative viability,NCI-H3122; first compound 0.02 µM,0.115
same,relative viability,EMC-BAC-2; first compound 0.0002 µM,1.15
same,relative viability,EMC-BAC-2; first compound 0.000632 µM,1.08
same,relative viability,EMC-BAC-2; first compound 0.002 µM,0.385
same,relative viability,EMC-BAC-2; first compound 0.006325 µM,0.368
same,relative viability,EMC-BAC-2; first compound 0.02 µM,0.238
same,relative viability,NCI-H596; first compound 0.0002 µM,0.872
same,relative viability,NCI-H596; first compound 0.000632 µM,0.58
same,relative viability,NCI-H596; first compound 0.002 µM,0.713
same,relative viability,NCI-H596; first compound 0.006325 µM,0.36
same,relative viability,NCI-H596; first compound 0.02 µM,0.267
same,relative viability,ABC-1; first compound 0.0002 µM,0.619
same,relative viability,ABC-1; first compound 0.000632 µM,0.704
same,relative viability,ABC-1; first compound 0.002 µM,0.231
same,relative viability,ABC-1; first compound 0.006325 µM,0.352
same,relative viability,ABC-1; first compound 0.02 µM,0.338
same,relative viability,NCI-H1993; first compound 0.0002 µM,0.771
same,relative viability,NCI-H1993; first compound 0.000632 µM,0.783
same,relative viability,NCI-H1993; first compound 0.002 µM,0.616
same,relative viability,NCI-H1993; first compound 0.006325 µM,0.481
same,relative viability,NCI-H1993; first compound 0.02 µM,0.446
same,relative viability,NCI-H1944; first compound 0.0002 µM,0.724
same,relative viability,NCI-H1944; first compound 0.000632 µM,0.723
same,relative viability,NCI-H1944; first compound 0.002 µM,0.635
same,relative viability,NCI-H1944; first compound 0.006325 µM,0.249
same,relative viability,NCI-H1944; first compound 0.02 µM,0.114
same,relative viability,LK-2; first compound 0.0002 µM,0.193
same,relative viability,LK-2; first compound 0.000632 µM,0.177
same,relative viability,LK-2; first compound 0.002 µM,0.157
same,relative viability,LK-2; first compound 0.006325 µM,0.164
same,relative viability,LK-2; first compound 0.02 µM,0.168
same,relative viability,HARA; first compound 0.0002 µM,0.46
same,relative viability,HARA; first compound 0.000632 µM,0.124
same,relative viability,HARA; first compound 0.002 µM,0.0629
same,relative viability,HARA; first compound 0.006325 µM,0.0587
same,relative viability,HARA; first compound 0.02 µM,0.0441
same,relative viability,NCI-H2228; first compound 0.0002 µM,0.146
same,relative viability,NCI-H2228; first compound 0.000632 µM,0.145
same,relative viability,NCI-H2228; first compound 0.002 µM,0.129
same,relative viability,NCI-H2228; first compound 0.006325 µM,0.194
same,relative viability,NCI-H2228; first compound 0.02 µM,0.19
same,relative viability,SW 900; first compound 0.0002 µM,0.185
same,relative viability,SW 900; first compound 0.000632 µM,0.182
same,relative viability,SW 900; first compound 0.002 µM,0.174
same,relative viability,SW 900; first compound 0.006325 µM,0.186
same,relative viability,SW 900; first compound 0.02 µM,0.167
same,relative viability,HOP-62; first compound 0.0002 µM,0.938
same,relative viability,HOP-62; first compound 0.000632 µM,0.744
same,relative viability,HOP-62; first compound 0.002 µM,0.509
same,relative viability,HOP-62; first compound 0.006325 µM,0.282
same,relative viability,NCI-H322M; first compound 0.0002 µM,0.836
same,relative viability,NCI-H322M; first compound 0.000632 µM,0.891
same,relative viability,NCI-H322M; first compound 0.002 µM,0.788
same,relative viability,NCI-H322M; first compound 0.006325 µM,0.557
same,relative viability,NCI-H322M; first compound 0.02 µM,0.347
same,relative viability,NCI-H2170; first compound 0.0002 µM,0.726
same,relative viability,NCI-H2170; first compound 0.000632 µM,0.704
same,relative viability,NCI-H2170; first compound 0.002 µM,0.451
same,relative viability,NCI-H2170; first compound 0.006325 µM,0.261
same,relative viability,NCI-H2170; first compound 0.02 µM,0.148
same,relative viability,PC-3 [JPC-3]; first compound 0.0002 µM,0.678
same,relative viability,PC-3 [JPC-3]; first compound 0.000632 µM,0.684
same,relative viability,PC-3 [JPC-3]; first compound 0.002 µM,0.5
same,relative viability,PC-3 [JPC-3]; first compound 0.006325 µM,0.223
same,relative viability,PC-3 [JPC-3]; first compound 0.02 µM,0.141
same,relative viability,NCI-H1792; first compound 0.0002 µM,0.43
same,relative viability,NCI-H1792; first compound 0.000632 µM,0.374
same,relative viability,NCI-H1792; first compound 0.002 µM,0.382
same,relative viability,NCI-H1792; first compound 0.006325 µM,0.338
same,relative viability,NCI-H1792; first compound 0.02 µM,0.212
same,relative viability,SW 1573; first compound 0.0002 µM,0.165
same,relative viability,SW 1573; first compound 0.000632 µM,0.211
same,relative viability,SW 1573; first compound 0.002 µM,0.0935
same,relative viability,SW 1573; first compound 0.006325 µM,0.137
same,relative viability,SW 1573; first compound 0.02 µM,0.0617
same,relative viability,LXF-289; first compound 0.0002 µM,0.683
same,relative viability,LXF-289; first compound 0.000632 µM,0.694
same,relative viability,LXF-289; first compound 0.002 µM,0.138
same,relative viability,LXF-289; first compound 0.006325 µM,0.111
same,relative viability,LXF-289; first compound 0.02 µM,0.0768
same,relative viability,NCI-H2009; first compound 0.0002 µM,0.979
same,relative viability,NCI-H2009; first compound 0.000632 µM,1.09
same,relative viability,NCI-H2009; first compound 0.002 µM,0.956
same,relative viability,NCI-H2009; first compound 0.006325 µM,0.78
same,relative viability,NCI-H2009; first compound 0.02 µM,0.261
same,relative viability,SK-MES-1; first compound 0.0002 µM,0.695
same,relative viability,SK-MES-1; first compound 0.000632 µM,0.618
same,relative viability,SK-MES-1; first compound 0.002 µM,0.267
same,relative viability,SK-MES-1; first compound 0.02 µM,0.163
same,relative viability,NCI-H522; first compound 0.0002 µM,1.19
same,relative viability,NCI-H522; first compound 0.000632 µM,1.02
same,relative viability,NCI-H522; first compound 0.002 µM,0.703
same,relative viability,NCI-H522; first compound 0.006325 µM,0.419
same,relative viability,NCI-H522; first compound 0.02 µM,0.357
same,relative viability,A-427; first compound 0.0002 µM,0.883
same,relative viability,A-427; first compound 0.000632 µM,0.832
same,relative viability,A-427; first compound 0.002 µM,0.507
same,relative viability,A-427; first compound 0.006325 µM,0.238
same,relative viability,A-427; first compound 0.02 µM,0.161
same,relative viability,NCI-H727; first compound 0.0002 µM,0.753
same,relative viability,NCI-H727; first compound 0.000632 µM,0.419
same,relative viability,NCI-H727; first compound 0.002 µM,0.351
same,relative viability,NCI-H727; first compound 0.006325 µM,0.353
same,relative viability,NCI-H727; first compound 0.02 µM,0.308
